Experiment: xn = mol fraction of the nth substance listed
Settings: 102 kPa, Liquid; for viscosity: Concentric cylinders viscometry; for speed of sound: Frequency=3 MHz, Single path-length method; for mass density: Vibrating tube method

CCCCCCCC1CCCCC1 [heptylcyclohexane] + CCCCCCCCCCCCCCCC
Settings | mass density [kg/m3] | speed of sound [m/s] | viscosity [mPa·s]
293.15 K, x1 = 0.1997 | 779.33 | 1358.9 | 3.34
293.15 K, x1 = 0.4002 | 785.92 | 1362 | 3.2
293.15 K, x1 = 0.5001 | 789.55 | 1363.4 | 3.13
293.15 K, x1 = 0.6006 | 793.34 | 1365.3 | 3.05
293.15 K, x1 = 0.7998 | 801.63 | 1368.8 | 2.92
293.15 K, x1 = 1 | 810.99 | 1374.4 | 2.8
303.15 K, x1 = 0.1997 | 772.4 | 1321.7 | 2.66
303.15 K, x1 = 0.4002 | 778.99 | 1324.4 | 2.56
303.15 K, x1 = 0.5001 | 782.6 | 1326.1 | 2.51
303.15 K, x1 = 0.6006 | 786.39 | 1327.5 | 2.45
303.15 K, x1 = 0.7998 | 794.64 | 1331.3 | 2.35
303.15 K, x1 = 1 | 803.96 | 1336.1 | 2.26
313.15 K, x1 = 0.1997 | 765.47 | 1285.1 | 2.17
313.15 K, x1 = 0.4002 | 772.06 | 1287.5 | 2.08
313.15 K, x1 = 0.5001 | 775.66 | 1289.4 | 2.05
313.15 K, x1 = 0.6006 | 779.44 | 1290.6 | 2.01
313.15 K, x1 = 0.7998 | 787.98 | 1294.3 | 1.93
313.15 K, x1 = 1 | 796.93 | 1298.7 | 1.86
323.15 K, x1 = 0.1997 | 758.54 | 1249.3 | 1.8
323.15 K, x1 = 0.4002 | 765.13 | 1251.5 | 1.73
323.15 K, x1 = 0.5001 | 768.71 | 1253.4 | 1.71
323.15 K, x1 = 0.6006 | 772.48 | 1254.5 | 1.67
323.15 K, x1 = 0.7998 | 780.65 | 1258.1 | 1.61
323.15 K, x1 = 1 | 789.89 | 1262.1 | 1.56
333.15 K, x1 = 0.1997 | 751.62 | 1214.4 | 1.52
333.15 K, x1 = 0.4002 | 758.19 | 1216.7 | 1.46
333.15 K, x1 = 0.5001 | 761.75 | 1218.2 | 1.45
333.15 K, x1 = 0.6006 | 765.51 | 1219.4 | 1.42
333.15 K, x1 = 0.7998 | 773.64 | 1222.8 | 1.37
333.15 K, x1 = 1 | 782.83 | 1226.5 | 1.33
343.15 K, x1 = 0.1997 | 744.7 | – | 1.31
343.15 K, x1 = 0.4002 | 751.3 | – | 1.25
343.15 K, x1 = 0.5001 | 754.8 | – | 1.25
343.15 K, x1 = 0.6006 | 758.6 | – | 1.22
343.15 K, x1 = 0.7998 | 766.7 | – | 1.18
343.15 K, x1 = 1 | 775.8 | – | 1.15
353.15 K, x1 = 0.1997 | 737.7 | – | 1.12
353.15 K, x1 = 0.4002 | 744.3 | – | 1.09
353.15 K, x1 = 0.5001 | 747.8 | – | 1.07
353.15 K, x1 = 0.6006 | 751.6 | – | 1.06
353.15 K, x1 = 0.7998 | 759.6 | – | 1.03
353.15 K, x1 = 1 | 768.7 | – | 0.993
363.15 K, x1 = 0.1997 | 730.8 | – | 1
363.15 K, x1 = 0.4002 | 737.8 | – | 0.954
363.15 K, x1 = 0.5001 | 740.7 | – | 0.962
363.15 K, x1 = 0.6006 | 744.5 | – | 0.932
363.15 K, x1 = 0.7998 | 752.6 | – | 0.903
363.15 K, x1 = 1 | 761.6 | – | 0.892
373.15 K, x1 = 0.1997 | 723.7 | – | 0.866
373.15 K, x1 = 0.4002 | 730.3 | – | 0.845
373.15 K, x1 = 0.5001 | 733.7 | – | 0.834
373.15 K, x1 = 0.6006 | 737.5 | – | 0.827
373.15 K, x1 = 0.7998 | 745.4 | – | 0.803
373.15 K, x1 = 1 | 754.4 | – | 0.776

Source: the NIST ThermoML archive (doi:10.1021/acs.jced.8b00692)
